Laboratory results from US10562935B2, “Stapled peptides and uses thereof” (London Health Sciences Centre Research Inc., priority 2015, dated 2020).
Bridges are numbered along the chain shown (N, C = ends).

Assays:
[1] = Direct HA-binding ELISA of biotinylated peptides on HA coated plates (Example 4); design: key to HA binding: absorbance (color) read at 450 nm; conditions: for HA binding: as repeated in tables 16, 18, 20; for HA direct binding (OD): optical density, summary tables 15, 17, 19
Method: Each of these peptides was biotinylated at its amino-terminus, and an AEEA spacer was included to separate the peptide sequence from the biotin molecule.
HA coated plates were purchased (ECHELON). Peptides were dissolved in 2 mM PBS to constant molarity, aliquoted and stored at −20° C. until used in assays. 7 kDa biotin-labeled RHAMM (SEQ ID NO: 1) was synthesized and used as a positive control in these assays. Biotin labeled peptides were added to the HA coated wells (n=3 replicates/peptide) at either 0.8 or 0.08 μM and then incubated with shaking overnight at 4° C. Wells were washed free of excess unbound peptides using 200 μl PBS (4 times). 100 μl of Streptavidin-HRP was then added to each well and the plate was incubated at room temperature for 1 hr. The plate was then washed with 200 μl PBS/well 4 times and TMB Liquid Substrate System for ELISA (Sigma) was added to each well, incubated for 5-10 min at room temperature and color read at 450 nm Plate Reader (BioTek, SYNERGY H4, Hybrid Reader).
Direct HA-binding results for the biotinylated equivalents of compounds 132 and 150-161 are show in FIG. 39, and results for compounds 265-268 and 275-278 are shown in FIG. 40.

NF-κB = test: Inflammation assay: NF-κB inducible SEAP reporter in RAW-Blue macrophages stimulated with PAM3CSK4; assay type: cell-based, murine; conditions: for Inflammation (% Inhib.): % inhibition relative to positive control
Method: Compounds 132, 133, 135, 150, 152, 157-161, 265-269, 275, 277, and 278 were evaluated for their ability to inhibit inflammation. To determine the effect of the peptides on inflammation, commercially available murine RAW 264.7 macrophages carrying a secreted embryonic alkaline phosphatase (SEAP) reporter that is inducible by NF-κB (RAW-Blue; InvivoGen, San Diego, Calif., USA) were used. Cells were grown to 80% confluence in DMEM containing 4.5 g/L glucose, 10% heat-inactivated fetal bovine serum, 2 mM L-glutamine, 50 μg/mL penicillin/streptomycin, 100 μg/mL Normocin (InvivoGen) at 37° C. in 5% CO2. For peptide screening experiments, cells were scraped in growth medium, counted, and plated to flat-bottom 96-well plates at a density of 5×10^4 cells/well either in the presence or absence (control) of 200 ng/mL TLR1/TLR2 agonist PAM3CSK4 (InvivoGen). Peptides were added in 6 replicate wells at a dose of 10 ng/mL in the presence of PAM3CSK4. After 18 hours of stimulation, SEAP concentrations (indicating NF-κB activity) were measured in the supernatants collected from the RAW-Blue cells using QUANTI-BLUE reagent (InvivoGen). After 20 minutes of incubation at 37° C., SEAP levels were determined using spectrophotometry at a wavelength of 630 nm.
Values are the mean and SDM of n=3 replicates. *p<0.05 and ***p<0.001 compared to +PAM3. In FIGS. 44 and 45, where bars are labeled with two compound numbers (“133/150” and “135/152”) this means that the data were pooled for the indicated compounds, i.e., for the non-acetylated and acetylated versions of the indicated peptides.

[2] = test system: IMR90 human fetal lung fibroblasts; test: Fibrosis assay: active TGF-β levels in TGF-β treated fibroblasts (ELISA); assay type: cell-based; conditions: % inhibition relative to positive control
Method: Compounds 132, 133, 135, 150, 152, 157-161, 265-269, 275, 277, and 278 were evaluated for their ability to inhibit fibrosis. IMR90 human fetal lung fibroblasts were obtained from ATCC and maintained in DMEM supplemented with 10% fetal bovine serum. In order to examine the effect of peptides on myofibroblast differentiation, 80% confluent cultures were serum starved overnight prior to addition of TGF-β (2 ng/mL, R&D Systems). Cells were treated with TGF-β for 24 hours prior to addition of peptides (10 ng/mL). 48 hours after addition of peptides, culture supernatants were collected and levels of active TGF-β measured using commercially available TGF-β ELISA (Quantikine, R&D Systems).
Values are the Mean and SDM n=3 replicates. *p<0.05, **p<0.01, ***p<0.001 when compared to the +TGFβ1 control. In FIG. 47, where bars are labeled with two compound numbers (“133/150” and “135/152”) this means that the data were pooled for the indicated compounds, i.e., for the non-acetylated and acetylated versions of the indicated peptides.

[3] = Function blocking score: total percent inhibition over migration, invasion, inflammation and fibrosis assays divided by number of assays; assay type: cell-based; conditions: for Function blocking score (FBS): total percent inhibition for all assays tested divided by number of assays
Method: As documented in the Examples hereinabove, a variety of cyclized peptides were produced that contained the HA-binding domain 1 (HABD1), HA-binding domain 2 (HABD2), or both HABD1 and HABD2. These peptides were evaluated for helicity, direct HA binding and in a number of cell-based bioassays (effects on migration, invasion, NFkB activation, and TGFβ1 production) that are relevant to inflammation and fibrosis. The relationships amongst helicity, HA-binding, and biofunction were evaluated. Peptides were divided into three groups for this analysis: (1) peptides containing HABD1 (“HABD1”); (2) peptides containing HABD2 (“HABD2”); and peptides containing most or all of HABD1 and all of HABD2 (“HABD1+HABD2”). R^2 values were calculated to quantify the relationships between helicity, HA-binding, and biofunction were evaluated.
The results of this analysis for the HABD1 peptides are shown below in Tables 15 and 16. Table 16 provides a function blocking scores for each of the tested peptides and provides R^2 values showing the relationship between HA binding and helicity (“HA binding vs. CD”), HA binding and function-blocking score (“HA binding vs. FBS”) and helicity vs. function-blocking score (“CD vs. FBS”). The same type of summaries are provided for the HABD2 peptides in Tables 17 and 18 below, and for the HABD1+HABD2 peptides in Tables 19 and 20 below.
Function blocking scores were calculated as the total percent inhibition achieved by the peptide for all assays the peptides were tested in, divided by the number of assays. Assays included migration, invasion, inflammation and fibrosis assays. Not all peptides were tested all of the assays. All peptides were included for deriving R^2 values (Pearson's formula).

Substance | HA binding [1] | HA direct binding (OD) [1] [OD] | Inflammation (% Inhib.) (NF-κB) | Fibrosis (% inhib.) [2] [% inhib.] | Function blocking score (FBS) [3] | direct HA binding (in words) ([1]; biotinylated equivalents of the named compounds, 0.8 or 0.08 μM, vs PBS only control) | inhibition of inflammation (SEAP / NF-κB activity, in words) (NF-κB; 10 ng/mL peptide with 200 ng/mL PAM3CSK4, 18 hours, compared to +PAM3) | function blocking (in words) [3]
Ac-(cyclo-4,8)-NLK[EKIKK]VVKLKDE-NH2 (Ac-NLKEKIKKVVKLKDE-NH2; lactam 4-8; SMILES CC[C@H](C)[C@@H]1NC(=O)[C@H](CCCCN)NC(=O)[C@@H](NC(=O)[C@H](CCCCN)NC(=O)[C@H](CC(C)C)NC(=O)[C@H](CC(N)=O)NC(C)=O)CCC(=O)NCCCC[C@@H](C(=O)N[C@H](C(=O)N[C@H](C(=O)N[C@@H](CCCCN)C(=O)N[C@@H](CC(C)C)C(=O)N[C@@H](CCCCN)C(=O)N[C@@H](CC(=O)O)C(=O)N[C@@H](CCC(=O)O)C(N)=O)C(C)C)C(C)C)NC(=O)[C@H](CCCCN)NC1=O) [Compound 157] | 0.02 | 0.02 | 0 | 38 | 8.6 | – | – | –
Ac-(cyclo-4,8)-VSK[ERSQK]VKRKQN-NH2 (Ac-VSKERSQKVKRKQN-NH2; lactam 4-8; SMILES CC(=O)N[C@H](C(=O)N[C@@H](CO)C(=O)N[C@@H](CCCCN)C(=O)N[C@H]1CCC(=O)NCCCC[C@@H](C(=O)N[C@H](C(=O)N[C@@H](CCCCN)C(=O)N[C@@H](CCCNC(=N)N)C(=O)N[C@@H](CCCCN)C(=O)N[C@@H](CCC(N)=O)C(=O)N[C@@H](CC(N)=O)C(N)=O)C(C)C)NC(=O)[C@H](CCC(N)=O)NC(=O)[C@H](CO)NC(=O)[C@H](CCCNC(=N)N)NC1=O)C(C)C) [Compound 150] | 0.015 | 0.015 | 0 | 31 | 27 | – | – | –
Ac-(cyclo-5,9)-NLKQ[EIKHK]VKLKDE-NH2 (Ac-NLKQEIKHKVKLKDE-NH2; lactam 5-9; SMILES CC[C@H](C)[C@@H]1NC(=O)[C@@H](NC(=O)[C@H](CCC(N)=O)NC(=O)[C@H](CCCCN)NC(=O)[C@H](CC(C)C)NC(=O)[C@H](CC(N)=O)NC(C)=O)CCC(=O)NCCCC[C@@H](C(=O)N[C@H](C(=O)N[C@@H](CCCCN)C(=O)N[C@@H](CC(C)C)C(=O)N[C@@H](CCCCN)C(=O)N[C@@H](CC(=O)O)C(=O)N[C@@H](CCC(=O)O)C(N)=O)C(C)C)NC(=O)[C@H](Cc2c[nH]cn2)NC(=O)[C@H](CCCCN)NC1=O) [Compound 158] | 0.005 | 0.005 | 0 | 31 | 22 | – | – | –
Ac-(cyclo-5,9)-VSKL[ESQLK]KRKQN-NH2 (Ac-VSKLESQLKKRKQN-NH2; lactam 5-9; SMILES CC(=O)N[C@H](C(=O)N[C@@H](CO)C(=O)N[C@@H](CCCCN)C(=O)N[C@@H](CC(C)C)C(=O)N[C@H]1CCC(=O)NCCCC[C@@H](C(=O)N[C@@H](CCCCN)C(=O)N[C@@H](CCCNC(=N)N)C(=O)N[C@@H](CCCCN)C(=O)N[C@@H](CCC(N)=O)C(=O)N[C@@H](CC(N)=O)C(N)=O)NC(=O)[C@H](CC(C)C)NC(=O)[C@H](CCC(N)=O)NC(=O)[C@H](CO)NC1=O)C(C)C) [Compound 151] | 0.01 | 0.01 | – | – | 20 | – | – | –
Ac-(cyclo-6,10)-NLKQK[EKHVK]KLKDE-NH2 (Ac-NLKQKEKHVKKLKDE-NH2; lactam 6-10; SMILES CC(=O)N[C@@H](CC(N)=O)C(=O)N[C@@H](CC(C)C)C(=O)N[C@@H](CCCCN)C(=O)N[C@@H](CCC(N)=O)C(=O)N[C@@H](CCCCN)C(=O)N[C@H]1CCC(=O)NCCCC[C@@H](C(=O)N[C@@H](CCCCN)C(=O)N[C@@H](CC(C)C)C(=O)N[C@@H](CCCCN)C(=O)N[C@@H](CC(=O)O)C(=O)N[C@@H](CCC(=O)O)C(N)=O)NC(=O)[C@H](C(C)C)NC(=O)[C@H](Cc2c[nH]cn2)NC(=O)[C@H](CCCCN)NC1=O) [Compound 159] | 0.009 | 0.009 | 0 | 50 | 17 | – | – | –
Ac-(cyclo-6,10)-VSKLR[EQLVK]RKQN-NH2 (Ac-VSKLREQLVKRKQN-NH2; lactam 6-10; SMILES CC(=O)N[C@H](C(=O)N[C@@H](CO)C(=O)N[C@@H](CCCCN)C(=O)N[C@@H](CC(C)C)C(=O)N[C@@H](CCCNC(=N)N)C(=O)N[C@H]1CCC(=O)NCCCC[C@@H](C(=O)N[C@@H](CCCNC(=N)N)C(=O)N[C@@H](CCCCN)C(=O)N[C@@H](CCC(N)=O)C(=O)N[C@@H](CC(N)=O)C(N)=O)NC(=O)[C@H](C(C)C)NC(=O)[C@H](CC(C)C)NC(=O)[C@H](CCC(N)=O)NC1=O)C(C)C) [Compound 152] | 0.005 | – | – | – | 47 | bound poorly to HA | significantly inhibited inflammation | strong function blocker
Ac-(cyclo-7,11)-VSKLRS[ELVKK]KQN-NH2 (Ac-VSKLRSELVKKKQN-NH2; lactam 7-11; SMILES CC(=O)N[C@H](C(=O)N[C@@H](CO)C(=O)N[C@@H](CCCCN)C(=O)N[C@@H](CC(C)C)C(=O)N[C@@H](CCCNC(=N)N)C(=O)N[C@@H](CO)C(=O)N[C@H]1CCC(=O)NCCCC[C@@H](C(=O)N[C@@H](CCCCN)C(=O)N[C@@H](CCC(N)=O)C(=O)N[C@@H](CC(N)=O)C(N)=O)NC(=O)[C@H](CCCCN)NC(=O)[C@H](C(C)C)NC(=O)[C@H](CC(C)C)NC1=O)C(C)C) [Compound 153] | 0.08 | 0.08 | – | – | 29 | – | – | –
